Laboratory results from US11738029B2, “Rucaparib particles and uses thereof” (CRITITECH, INC., priority 2021, dated 2023).

How the values were obtained:
Assay type in all cases: physicochemical
[1] = Particle size distribution (PSD) by laser diffraction, Malvern Mastersizer 3000; details: dispersed in ethyl acetate
Protocol: (§1) • Particle Size Distribution (PSD) by Laser Diffraction • Imaging by Scanning Electron Microscopy (SEM) • Specific Surface Area (SSA) determination by BET Sorptometry • Crystalline/amorphous phase determination by Powder X-ray Diffraction (PXRD) • Bulk density analysis by modified USP <616>Bulk Density of Powders Method I
Particle size analyses were conducted on a Malvern Mastersizer™ 3000 using the Hydro MV™ dispersion unit. A non-validated general PSD method/dispersant method was used to analyze the rucaparib samples. The sample preparation procedure performed was as follows: • Weigh 10 to 20 mg of rucaparib into a 30-mL vial, add 20 mL of ethyl acetate. Disperse the sample by vortexing then sonicating the suspension in an ultrasonic bath for 1 minute. Then transfer the sample suspension to the Malvern Hydro MV™ dispersion unit to obtain obscuration between 5 and 15%.
Particle size distributions can be viewed in Table 1.

[2] = Bulk density analysis by modified USP <616> Bulk Density of Powders Method I (bulk and tapped)
Text: As used herein, the bulk density (not tapped) of a particle is the ratio of the mass to the volume (including the interparticulate void volume) of an untapped powder sample.
As used herein, the tapped density of a particle is obtained by mechanically tapping a graduated cylinder containing the sample until little further volume change is observed.
as §1

[3] = Specific surface area (SSA) by BET sorptometry
Protocol: As used herein, the “specific surface area” is the total surface area of the rucaparib particle per unit of rucaparib mass as measured by the Brunauer-Emmett-Teller (“BET”) isotherm (i.e.: the BET SSA). As will be understood by those of skill in the art, the SSA is determined on a per gram basis and takes into account both agglomerated and non-agglomerated rucaparib particles in the composition. The BET specific surface area test procedure is a compendial method included in both the United States Pharmaceopeia and the European Pharmaceopeia. The rucaparib particles have a specific surface area (SSA) of at least 12 m^2/g. In various further embodiments, the rucaparib particles have a SSA of at least 13 m^2/g, 14 m^2/g, 15 m^2/g, 16 m^2/g, 17 m^2/g, 18 m^2/g, 19 m^2/g, 20 m^2/g, 21 m^2/g, 22 m^2/g, 23 m^2/g, 24 m^2/g, 25 m^2/g, 26 m^2/g, 27 m^2/g, 28 m^2/g, 29 m^2/g, or 30 m^2/g.
as §1
Specific Surface Area Surface area analyses were conducted on a Quantachrome NOVAtouch™ LX2 BET Sorptometer. Surface area results can be found in Table 1.

[4] = Solubility testing, shake-flask method; details: 24 hours at 20-25° C.
Protocol: The solubility was determined by using a shake-flask method. The drug was added in excess to each solution prepared in duplicate. The vials were placed on a mechanical shaker for 24 hours at 20-25° C. After shaking, solution was removed and filtered through a 0.45 μm PTFE syringe filter and analyzed by UV/Visible spectrophotometry.

SMILES: CNCc1ccc(-c2[nH]c3cc(F)cc4c3c2CCNC4=O)cc1 [Rucaparib, (8-fluoro-2-{4-[(methylamino)methyl]phenyl}-1,3,4,5-tetrahydro-6H-azepino[5,4,3-cd]indol-6-one ((1S,4R)-7,7-dimethyl-2-oxobicyclo[2.2.1]hept-1-yl)]
- PSD - Masterisizer Dv-10 [1]: 2.96 μ
- PSD - Masterisizer Dv-50 [1]: 13.6 μ
- PSD - Masterisizer Dv-90 [1]: 26.8 μ
- Bulk Density ([2]; not tapped): 0.332 gm/cm^3
- Tapped Density ([2]; tapped): 0.427 gm/cm^3
- Surface Area ([3]; BET): 6.59 m^2/gm
- specific surface area measurement ([3]; material used in dissolution testing): 6.59 m2/g
- Concentration of Rucaparib Found ([4]; 25% ethanol): 115 µg/mL
- Concentration of Rucaparib Found ([4]; 25% methanol): 68.8 µg/mL
- Concentration of Rucaparib Found ([4]; 40% ethanol): 394 µg/mL
- Concentration of Rucaparib Found ([4]; 40% methanol): 739 µg/mL
